Measured values taken from ChEMBL document CHEMBL1151156, “Lakoochins A and B, new antimycobacterial stilbene derivatives from Artocarpus lakoocha” (J Nat Prod, 2004).
In brackets after ≈: the same amount, converted by molar mass. Activity calls are given as the source filed them. The calls are words filed in the database; no cut-off is given here.

Key:
[1] = test system: KB; assay: Cytotoxicity against human KB cells by SRB assay; type: functional, cell-based
[2] = test system: Mycobacterium tuberculosis; assay: Antimycobacterial activity against Mycobacterium tuberculosis H37Ra after 4 days by microplate alamar blue assay; type: functional; conditions: 96 h
[3] = Cytotoxicity against human BC cells by SRB assay; type: functional, cell-based
[4] = test system: KB; assay: Cytotoxicity against human KB cells at 20 ug/ml by SRB assay; type: functional, cell-based

`CC(C)=CCC/C(C)=C/Cc1c(O)cc(O)c(CC=C(C)C)c1-c1cc2ccc(O)cc2o1` [LAKOOCHIN B] showed an IC50 [1] of 6.1 µg/mL (≈ 13.7 µM), an MIC [2] of 50 µg/mL (≈ 112 µM) and an IC50 [3] of 3.1 µg/mL (≈ 6.94 µM).
With `NC[C@H]1O[C@H](O[C@H]2[C@H](O)[C@@H](O[C@H]3O[C@H](CO)[C@@H](O)[C@H](N)[C@H]3O)[C@H](N)C[C@@H]2N)[C@H](O)[C@@H](O)[C@@H]1O.O=S(=O)(O)O` [KANAMYCIN SULFATE] the MIC [2] was 2 µg/mL.
With `COc1cc(OC)c(CC=C(C)C)c(-c2cc3ccc(O)cc3o2)c1CC=C(C)C` [LAKOOCHIN A] the MIC [2] was 12.5 µg/mL (≈ 30.7 µM), the Activity [4] was “inactive” and the IC50 [3] was 6.1 µg/mL (≈ 15 µM).
Work on `Cc1c2ccncc2c(C)c2c1[nH]c1ccccc12` [ELLIPTECINE] yielded an IC50 [3] of 0.2 µg/mL (≈ 0.812 µM).
`NNC(=O)c1ccncc1` [ISONIAZID] gave an MIC [2] of 0.04 µg/mL (≈ 0.292 µM).
